Six molecules from patent US20250268869A1, “METHODS OF USING A (THIAZOLYL)BENZENESULFONAMIDE DERIVATIVE” (Cyteir Therapeutics, Inc., priority 2022, published 2025) can be followed below.

One experiment concerns Daudi (Burkitt Lymphoma) cells. Kind of experiment: Intracellular Lactate Accumulation Assay (Lactate-Glo). It is filed as cell-based. To be noted: Homo sapiens, 2h treatment, read-out: LactateGlo EC50. Here is the method: Intracellular lactate accumulation after a 2h treatment with compounds of the present invention was measured in Daudi (Burkitt Lymphoma) cells using the Lactate-Glo Assay (Promega).
Daudi cells were seeded at 7,500 cells per well in 150 μL of growth medium (RPMI-1640 with 2 mM GlutaMAX+10% FBS) in clear, 96-well, flat-bottom microplates, and incubated overnight (37° C., 5% CO2). Compounds of the present invention were added using an INTEGRA VIAFLO 96 (8 point, 3-fold serial dilution, top concentration 1, 10, or 20 μM, 0.4% final DMSO concentration). After a 2h incubation (37° C., 5% CO2) microplates containing cells were washed twice with 150 μL ice-cold PBS, resuspended in 25 μL ice-cold PBS containing 12.5 μL 0.6N HCl, and placed on a microplate shaker for 5 min to lyse the cells. Following lysis, 12.5 μL 1M Trizma base was added to neutralize the suspension, and microplates were returned to the microplate shaker for 1 min. Plates were sealed and stored at −20° C. until further processing. On the day of the assay, microplates were thawed for 45 min at room temperate and 50 μL Lactate Detection Reagent (prepared as specified by manufacturer) was added to each well. Microplates were placed on a plate shaker for 1 min and incubated at room temperature for 1h. Luminescence was measured using a BioTek Cytation 5 Multi-Mode Reader. Curve fitting and calculation of EC50 was performed using GraphPad Prism.
On to `CCNS(=O)(=O)c1cc(Nc2ccn[nH]2)ccc1-c1cnc([C@H]2CC[C@H](NC(=O)OC(C)C)CC2)s1` [Compound 121, isopropyl trans-N-[4-[5-[2-(ethylsulfamoyl)-4-[(1H-pyrazol-5-yl)amino]phenyl]thiazol-2-yl]cyclohexyl]carbamate], for which the half-maximal effective concentration (EC50) was less than 50 nM. Same read-out and setting: under `CC(C)OC(=O)NC1CCC(c2ncc(-c3ccc(N(C)C(=O)NCc4ccccc4)cc3S(=O)(=O)NC(C)(C)CO)s2)CC1` (stereo not shown) [Compound 176] stands greater than 5000 nM; under `CC(C)OC(=O)Nc1ccc(-c2cnc(C3CCC(NC(=O)OC(C)C)CC3)s2)c(S(=O)(=O)NCCN(C)C)c1` (stereo not shown) [Compound 175], 1000 to 5000 nM. As for `CCNS(=O)(=O)c1cc(Nc2ccc(CC)nn2)ccc1-c1cnc([C@H]2CC[C@H](NC(=O)OC(C)C)CC2)s1` [Compound 157, isopropyl trans-N-[4-[5-[4-[(6-ethylpyridazin-3-yl)amino]-2-(ethylsulfamoyl)phenyl]thiazol-2-yl]cyclohexyl]carbamate], the concentration giving a half-maximal response (EC50) was less than 50 nM.

The target of a further experiment is T1, human MCT1 (Homo sapiens, UniProt P53985).
T1 construct: host or cells: MDCK-II cells, transiently co-transfected
T1 sequence (P53985 1-500): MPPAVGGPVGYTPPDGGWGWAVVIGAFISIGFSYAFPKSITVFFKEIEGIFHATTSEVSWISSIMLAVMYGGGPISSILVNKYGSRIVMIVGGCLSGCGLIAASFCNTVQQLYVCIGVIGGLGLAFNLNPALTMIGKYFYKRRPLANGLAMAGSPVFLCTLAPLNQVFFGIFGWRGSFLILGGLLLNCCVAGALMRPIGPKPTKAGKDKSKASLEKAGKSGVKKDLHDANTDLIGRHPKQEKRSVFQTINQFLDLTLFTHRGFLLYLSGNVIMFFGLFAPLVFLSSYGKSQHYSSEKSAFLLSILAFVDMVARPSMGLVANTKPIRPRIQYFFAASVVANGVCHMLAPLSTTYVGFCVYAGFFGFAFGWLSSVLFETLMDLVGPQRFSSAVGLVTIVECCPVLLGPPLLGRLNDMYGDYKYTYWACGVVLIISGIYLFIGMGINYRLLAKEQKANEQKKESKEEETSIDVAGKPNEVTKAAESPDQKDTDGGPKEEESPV
T1 sequence (P35613 140-385 partner limits assumed): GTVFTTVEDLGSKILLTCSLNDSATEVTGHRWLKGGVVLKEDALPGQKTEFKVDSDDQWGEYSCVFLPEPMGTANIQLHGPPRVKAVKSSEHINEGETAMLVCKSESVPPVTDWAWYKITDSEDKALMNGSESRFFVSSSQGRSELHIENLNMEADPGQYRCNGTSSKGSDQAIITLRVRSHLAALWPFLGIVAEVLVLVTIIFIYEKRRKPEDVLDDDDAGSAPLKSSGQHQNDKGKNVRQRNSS
Nature of the experiment: MCT1 Transport Inhibition Assay. To be noted: MDCK-II cells overexpressing human MCT1 (with CD147), TPGA transport, LC-MS/MS; read-out: BioIVT MCT1 Transporter IC50. It is filed as cell-based. The protocol: Inhibition of MCT1 transport after treatment with compounds of the present invention was measured in MDCK-II cells that overexpress human MCT1 by quantifying the transport of 2-Thiophene-glycoxylic acid (TPGA) into cells using LC-MS/MS.
MDCK-II cells are seeded at 60,000 cells per well in growth medium (low-glucose DMEM+10% FBS) in 96-well trans-well membrane plates, and incubated overnight (37° C., 5% CO2). Cells were co-transfected with mammalian expression constructs coding for MCT1 and CD147 at a 2:1 ratio or an empty vector control (GFP) and then incubated for 48h (37° C., 5% CO2). Cells were washed 3 times with HBSS and cells were preincubated with inhibitors or vehicle control at room temperature in HBSS for 30 min with orbital shaking (60 rpm). HBSS was aspirated from the wells and replaced with HBSS with 25 mM Bis-Tris pH5.5+inhibitor or vehicle control+500 μM TPGA and incubated for 1 min at room temperature with orbital shaking (60 rpm). Both the apical and basolateral side of the trans-well insert were washed 4 times with ice-cold PBS. Cells were lysed with 60 μL of cell extraction solution, and the amount of TPGA in each well was quantified in triplicate by LC-MS/MS. The MCT1-mediated uptake rate was calculated using the following equation: […]
Percent inhibition for each concentration of inhibitor tested was calculated using the following equation: […]
Curves were fit to the calculated percent inhibition for each inhibitor, and the IC50 representing the concentration of inhibitor at which MCT1 is inhibited by 50% was calculated from this curve.
Turning to `Cc1[nH]nc(C(F)(F)F)c1Cc1sc2c(c1C(=O)N1C[C@](C)(O)CO1)c(=O)n(C)c(=O)n2C(C)C` [AZD3965], the IC50 was in the range of 50 to 150 nM. Same read-out and setting: to `CCNS(=O)(=O)c1cc(Nc2ccc(CC)nn2)ccc1-c1cnc([C@H]2CC[C@H](NC(=O)OC(C)C)CC2)s1` [Compound 157, isopropyl trans-N-[4-[5-[4-[(6-ethylpyridazin-3-yl)amino]-2-(ethylsulfamoyl)phenyl]thiazol-2-yl]cyclohexyl]carbamate] belongs 50 to 150 nM. The same measure, in the same setting: to `O=C(Nc1ccccc1C(=O)O)c1cc(S(=O)(=O)c2ccccc2)ccc1Cl` [BAY8002] belongs 50 to 150 nM.

For orientation: EC50 means the concentration at which the effect is half-maximal. One may read the IC50 as the midpoint of a concentration-inhibition curve.
